# Reference: patent US5593985A, “Cephalosporin compounds” (priority 1994, dated 1997)
# Read-outs that look alike come from different tables or passages of the source.
# Columns and labels:
# Type in all cases: cell-based
# [1] = system: Streptococcus pyogenes A 77; assay: MIC, standard strain 2; conditions: A77, S. pyogenes A 77, two-fold dilution, Muller Hinton agar, 10^7 CFU/ml, 37° C., 18 hours, read-out: Minimal Inhibitory Concentration(MIC)
# Procedure: (§1) In order to illustrate antibiotic effectiveness of the compounds of the present invention, the minimal inhibitory concentrations (MIC's) of the representative compounds were determined against standard strains and compared with ceftazidime and cefpirome, which were used as control compounds.
# (§2) The MIC values were taken by employing a two-fold dilution method: that is, two-fold serial dilutions of each of the test compounds were made from initial concentration of […]; each 1.5 ml of them was dispersed in 13.5 ml of Muller Hinton agar medium to adjust to […]; the standard test strain which had the concentration of 10^7 CFU/ml was inoculated by medium;and these were incubated at 37° C. for 18 hours.
# (§3) The test used twenty kinds of standard test strains which induced urinary tract infections, respiratory organ infections, skin soft tissue infections, plasma infections, gastrointestinal infections, central nervous system infections, most of which produce β-lactamase. The standard test strains used are as follows:
# 2. Streptococcus pyogenes A 77
# [2] = system: Streptococcus faecium 8b; assay: MIC, standard strain 3; conditions: Enterococcus faecium; S. faecium 8b; two-fold dilution, Muller Hinton agar, 10^7 CFU/ml, 37° C., 18 hours; read-out: Minimal Inhibitory Concentration(MIC)
# Procedure: as §1, §2, §3
# 3. Streptococcus faecium 8b
# [3] = system: Escherichia coli 0 55; assay: MIC, standard strain 7; conditions: 055, E. coli 0 55, two-fold dilution, Muller Hinton agar, 10^7 CFU/ml, 37° C., 18 hours, read-out: Minimal Inhibitory Concentration(MIC)
# Procedure: as §1, §2
# (§4) The test used twenty kinds of standard test strains which induced urinary tract infections, respiratory organ infections, skin soft tissue infections, plasma infections, gastrointestinal infections, central nervous system infections, most of which produce β-lactamase.
# [4] = system: Escherichia coli DC 0; assay: MIC, standard strain 8; conditions: DC0, E. coli DC 0, two-fold dilution, Muller Hinton agar, 10^7 CFU/ml, 37° C., 18 hours, read-out: Minimal Inhibitory Concentration(MIC)
# Procedure: as §1, §2, §4
# [5] = system: Escherichia coli TEM; assay: MIC, standard strain 10; conditions: 18 h, read-out: Minimal Inhibitory Concentration(MIC)
# Procedure: as §1, §2, §4
# [6] = system: Pseudomonas aeruginosa 9.027; assay: MIC, standard strain 12; conditions: Pseudomonas aeruginosa; P. aeruginosa 9.027; two-fold dilution, Muller Hinton agar, 10^7 CFU/ml, 37° C., 18 hours; read-out: Minimal Inhibitory Concentration(MIC)
# Procedure: as §1, §2, §3
# 12. Pseudomonas aeruginosa 9.027
# [7] = system: Pseudomonas aeruginosa 1771M; assay: MIC, standard strain 15; conditions: 18 h, read-out: Minimal Inhibitory Concentration(MIC)
# Procedure: as §1, §2, §3
# 15. Pseudomonas aeruginosa 1771M
# [8] = system: Enterobacter cloacae 1321 E; assay: MIC, standard strain 20; conditions: E. cloacae 1321 E, two-fold dilution, Muller Hinton agar, 10^7 CFU/ml, 37° C., 18 hours, read-out: Minimal Inhibitory Concentration(MIC)
# Procedure: as §1, §2, §3
# 20. Enterobacter cloacae 1321 E
# [9] = system: ATCC; assay: MIC, clinically separated strains; conditions: 18 h; 20 strains
# Procedure: as §2
# [10] = system: D Streptococcus I; assay: MIC, clinically separated strains; conditions: 18 h; for MIC50 / MIC90: 20 clinical strains; for MIC: read-out: range of MIC, 20 clinical strains
# Procedure: as §2
# [11] = system: Enterobactercloacas; assay: MIC, clinically separated strains; conditions: Enterobacter cloacae, 18 h, 20 clinical strains; for MIC: read-out: range of MIC
# Procedure: as §2
# [12] = system: Enterococcus II; assay: MIC, clinically separated strains; conditions: 18 h; for MIC50 / MIC90: 20 clinical strains; for MIC: read-out: range of MIC, 20 clinical strains
# Procedure: as §2
# [13] = system: Enterococcus I; assay: MIC, clinically separated strains; conditions: 18 h; for MIC50 / MIC90: 20 clinical strains
# Procedure: as §2
# [14] = system: Escherichia coli; assay: MIC, clinically separated strains; conditions: 18 h; for MIC50 / MIC90: 20 clinical strains; for MIC: read-out: range of MIC, 20 clinical strains
# Procedure: as §2
# [15] = system: Klebsiella oxytoca; assay: MIC, clinically separated strains; conditions: 18 h; for MIC50 / MIC90: 20 clinical strains; for MIC: read-out: range of MIC, 20 clinical strains
# Procedure: as §2
# [16] = system: MRSA(KAIST); assay: MIC, clinically separated strains; conditions: Staphylococcus aureus, 18 h; for MIC50 / MIC90: 15 clinical strains; for MIC: read-out: range of MIC, 15 clinical strains
# Procedure: as §2
# [17] = system: Methicillin Resistant; assay: MIC, clinically separated strains; conditions: 18 h, 19 clinical strains; for MIC: read-out: range of MIC
# Procedure: as §2
# [18] = system: Morganella morganii; assay: MIC, clinically separated strains; conditions: 18 h; for MIC50 / MIC90: 5 clinical strains; for MIC: read-out: range of MIC, 5 clinical strains
# Procedure: as §2
# [19] = system: Proteus mirabilis; assay: MIC, clinically separated strains; conditions: 18 h; for MIC50 / MIC90: 4 clinical strains; for MIC: read-out: range of MIC, 4 clinical strains
# Procedure: as §2
# [20] = system: Proteus vulgaris; assay: MIC, clinically separated strains; conditions: 18 h; for MIC50 / MIC90: 5 clinical strains; for MIC: read-out: range of MIC, 5 clinical strains
# Procedure: as §2
# [21] = system: Providencia rettgeri; assay: MIC, clinically separated strains; conditions: 18 h; for MIC: read-out: range of MIC, 6 clinical strains
# Procedure: as §2
# [22] = system: Pseudomonas II; assay: MIC, clinically separated strains; conditions: 18 h; for MIC: read-out: range of MIC
# Procedure: as §2
# [23] = system: Pseudomonas I; assay: MIC, clinically separated strains; conditions: 18 h; for MIC: read-out: range of MIC
# Procedure: as §2
# [24] = system: Pseudomonas aeruginosa; assay: MIC, clinically separated strains; conditions: 18 h; for MIC50 / MIC90: 20 clinical strains; for MIC: read-out: range of MIC, 20 clinical strains
# Procedure: as §2
# [25] = system: Serratia spp; assay: MIC, clinically separated strains; conditions: 18 h; for MIC50 / MIC90: 20 clinical strains; for MIC: read-out: range of MIC, 20 clinical strains
# Procedure: as §2
# [26] = system: Streptococcus II; assay: MIC, clinically separated strains; conditions: 18 h; for MIC50 / MIC90: 17 clinical strains; for MIC: read-out: range of MIC, 17 clinical strains
# Procedure: as §2
structure (smiles),measurement,setting,value
CO/N=C(\C(=O)N[C@@H]1C(=O)N2C(C(=O)[O-])=C(C[n+]3ccc(C(N)=O)c4c3CCC4)CS[C@H]12)c1csc(N)n1 [Example 3],MIC,[1],2 µg/mL
same,MIC,[2],12500 µg/mL
same,MIC,[3],31 µg/mL
same,MIC,[4],25 µg/mL
same,MIC,[5],49 µg/mL
same,MIC,[6],1560 µg/mL
same,MIC,[7],195 µg/mL
same,MIC,[8],7 µg/mL
same,MIC50,[9],0.098 µg/mL
same,MIC90,[9],25 µg/mL
same,MIC50,[10],12.5 µg/mL
same,MIC90,[10],25 µg/mL
same,MIC,[10],12.5 to 100 µg/mL
same,MIC,[11],0.013 to 1.56 µg/mL
same,MIC50,[11],0.025 µg/mL
same,MIC90,[11],0.049 µg/mL
same,MIC50,[12],0.025 µg/mL
same,MIC90,[12],1.56 µg/mL
same,MIC,[12],0.007 to 3.12 µg/mL
same,MIC50,[13],0.025 µg/mL
same,MIC90,[13],0.049 µg/mL
same,MIC,"[13]; read-out: range of MIC, 20 clinical strains",0.013 to 0.195 µg/mL
same,MIC50,[14],0.025 µg/mL
same,MIC90,[14],0.049 µg/mL
same,MIC,[14],0.025 to 0.391 µg/mL
same,MIC50,[15],0.013 µg/mL
same,MIC90,[15],0.098 µg/mL
same,MIC,[15],0.007 to 0.391 µg/mL
same,MIC50,[16],6.25 µg/mL
same,MIC90,[16],50 µg/mL
same,MIC,[16],0.781 to 100 µg/mL
same,MIC,[17],0.781 to 100 µg/mL
same,MIC50,[17],6.25 µg/mL
same,MIC90,[17],50 µg/mL
same,MIC50,[18],0.013 µg/mL
same,MIC90,[18],0.025 µg/mL
same,MIC,[18],0.013 to 0.025 µg/mL
same,MIC50,[19],0.013 µg/mL
same,MIC90,[19],0.049 µg/mL
same,MIC,[19],0.007 to 0.049 µg/mL
same,MIC50,[20],0.025 µg/mL
same,MIC90,[20],0.098 µg/mL
same,MIC,[20],0.025 to 0.098 µg/mL
same,MIC50,[21]; 6 clinical strains,0.013 µg/mL
same,MIC90,[21]; 6 clinical strains,0.049 µg/mL
same,MIC,[21],0.004 to 0.098 µg/mL
same,MIC50,[22],1.56 µg/mL
same,MIC90,[22],6.25 µg/mL
same,MIC,[22],0.781 to 12.5 µg/mL
same,MIC50,[23],3.12 µg/mL
same,MIC90,[23],6.25 µg/mL
same,MIC,[23],0.781 to 12.5 µg/mL
same,MIC50,[24],3.12 µg/mL
same,MIC90,[24],6.25 µg/mL
same,MIC,[24],0.781 to 12.5 µg/mL
same,MIC50,[25],0.025 µg/mL
same,MIC90,[25],0.049 µg/mL
same,MIC,[25],0.025 to 0.049 µg/mL
same,MIC50,[26],0.004 µg/mL
same,MIC90,[26],0.007 µg/mL
same,MIC,[26],0.002 to 0.007 µg/mL
"CO/N=C(\C(=O)N[C@@H]1C(=O)N2C(C(=O)[O-])=C(C[n+]3cccc4c3CCC4)CS[C@H]12)c1csc(N)n1 [cefpirome, reference compound]",MIC,[1],98 µg/mL
same,MIC,[2],25000 µg/mL
same,MIC,[3],13 µg/mL
same,MIC,[4],49 µg/mL
same,MIC,[5],49 µg/mL
same,MIC,[6],3120 µg/mL
same,MIC,[7],195 µg/mL
same,MIC,[8],13 µg/mL
same,MIC50,[9],0.098 µg/mL
same,MIC90,[9],25 µg/mL
same,MIC50,[10],25 µg/mL
same,MIC90,[10],50 µg/mL
same,MIC,[10],12.5 to 100 µg/mL
same,MIC,[11],0.013 to 1.56 µg/mL
same,MIC50,[11],0.025 µg/mL
same,MIC90,[11],0.098 µg/mL
same,MIC50,[12],0.049 µg/mL
same,MIC90,[12],1.56 µg/mL
same,MIC,[12],0.007 to 3.12 µg/mL
same,MIC50,[13],0.025 µg/mL
same,MIC90,[13],0.098 µg/mL
same,MIC,[13]; read-out: range of MIC,0.013 to 0.195 µg/mL
same,MIC50,[14],0.025 µg/mL
same,MIC90,[14],0.049 µg/mL
same,MIC,[14],0.025 to 0.391 µg/mL
same,MIC50,[15],0.025 µg/mL
same,MIC90,[15],0.781 µg/mL
same,MIC,[15],0.007 to 0.391 µg/mL
same,MIC50,[16],12.5 µg/mL
same,MIC90,[16],100 µg/mL
same,MIC,[16],0.781 to 100 µg/mL
same,MIC,[17],0.781 to 100 µg/mL
same,MIC50,[17],12.5 µg/mL
same,MIC90,[17],100 µg/mL
same,MIC50,[18],0.013 µg/mL
same,MIC90,[18],0.025 µg/mL
same,MIC,[18],0.013 to 0.025 µg/mL
same,MIC50,[19],0.013 µg/mL
same,MIC90,[19],0.049 µg/mL
same,MIC,[19],0.007 to 0.049 µg/mL
same,MIC50,[20],0.049 µg/mL
same,MIC90,[20],0.098 µg/mL
same,MIC,[20],0.025 to 0.098 µg/mL
same,MIC,[21],0.004 to 0.098 µg/mL
same,MIC50,[22],1.56 µg/mL
same,MIC90,[22],6.25 µg/mL
same,MIC,[22],0.781 to 12.5 µg/mL
same,MIC50,[23],1.56 µg/mL
same,MIC90,[23],6.25 µg/mL
same,MIC,[23],0.781 to 12.5 µg/mL
same,MIC50,[24],3.12 µg/mL
same,MIC90,[24],12.5 µg/mL
same,MIC,[24],0.781 to 12.5 µg/mL
same,MIC50,[25],0.049 µg/mL
same,MIC90,[25],0.098 µg/mL
same,MIC,[25],0.025 to 0.049 µg/mL
same,MIC50,[26],0.004 µg/mL
same,MIC90,[26],0.007 µg/mL
same,MIC,[26],0.002 to 0.007 µg/mL
